Reference: ChEMBL document CHEMBL1201862, “PubChem BioAssay data set” (2004)
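Where inhibition never reached the appropriate level, the endpoint shown equals the highest concentration tested. Otherwise, values were interpolated linearly from a five-concentration, 48-hour dose response in 96-well plates. GI50: concentration for 50% inhibition of growth.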 Active and inactive are the calls of the source. Rule as the data show it: active = GI50 up to about 1.1 µM and inactive = higher.

Key:
Test in all cases: inhibition of tumour cell growth, NCI panel, 48 h
A549 = test system: A549
CCRF-CEM = test system: CCRF-CEM
EKVX = test system: EKVX
HCC 2998 = test system: HCC 2998
HCT-116 = test system: HCT-116
HCT-15 = test system: HCT-15
HOP-92 = test system: HOP-92
MOLT-4 = test system: MOLT-4
NCI-H460 = test system: NCI-H460
OVCAR-3 = test system: OVCAR-3
OVCAR-8 = test system: OVCAR-8
SK-MEL-2 = test system: SK-MEL-2
SNB-78 = test system: SNB-78
SW-620 = test system: SW-620
TK-10 = test system: TK-10
UACC-257 = test system: UACC-257
UACC-62 = test system: UACC-62
Hs-578T = test system: Hs-578T
PC-3 = test system: PC-3
T47D = test system: T47D

## CCc1cccc(C(C)C)c1N1C(=O)C(=O)C(c2nc3ccccc3s2)C(=O)C1=O
A549
  GI50: > 50 µM (inactive)
CCRF-CEM
  GI50: 11.3 µM (inactive)
EKVX
  GI50: > 50 µM (inactive)
HCC 2998
  GI50: > 50 µM (inactive)
HCT-116
  GI50: 20 µM (inactive)
HCT-15
  GI50: 29.4 µM
HOP-92
  GI50: > 50 µM (inactive)
MOLT-4
  GI50: 12.6 µM (inactive)
NCI-H460
  GI50: > 50 µM (inactive)
OVCAR-3
  GI50: > 25.5 µM (inactive)
OVCAR-8
  GI50: > 35.2 µM (inactive)
SK-MEL-2
  GI50: > 50 µM (inactive)
SNB-78
  GI50: > 50 µM (inactive)
SW-620
  GI50: 32.7 µM (inactive)
TK-10
  GI50: > 50 µM (inactive)
UACC-257
  GI50: > 39.3 µM (inactive)
UACC-62
  GI50: > 50 µM (inactive)

## O=C(Nc1ccc(Sc2ccc(/N=N/c3c(O)c(S(=O)(=O)O)cc4cc(S(=O)(=O)O)ccc34)cc2)cc1)c1ccc(/N=N/c2c(O)c(S(=O)(=O)O)cc3cc(S(=O)(=O)O)ccc23)cc1
A549
  GI50: 26.7 µM (inactive)
CCRF-CEM
  GI50: 21.2 µM (inactive)
EKVX
  GI50: 17.7 µM (inactive)
HCC 2998
  GI50: > 100 µM (inactive)
HCT-116
  GI50: 29.8 µM (inactive)
HCT-15
  GI50: 14.9 µM
HOP-92
  GI50: 30.5 µM (inactive)
MOLT-4
  GI50: 9.25 µM (inactive)
NCI-H460
  GI50: 14.5 µM (inactive)
OVCAR-3
  GI50: 15.8 µM (inactive)
OVCAR-8
  GI50: 21 µM (inactive)
SK-MEL-2
  GI50: 18.8 µM (inactive)
SNB-78
  GI50: 25.8 µM (inactive)
SW-620
  GI50: 28.3 µM (inactive)
TK-10
  GI50: 27.5 µM (inactive)
UACC-257
  GI50: 13.8 µM (inactive)
UACC-62
  GI50: 22.2 µM (inactive)

## Cc1cn2cc(-c3ccncc3)nc2s1
A549
  GI50: > 100 µM (inactive)
CCRF-CEM
  GI50: > 52.7 µM (inactive)
EKVX
  GI50: > 100 µM (inactive)
HCC 2998
  GI50: > 100 µM (inactive)
HCT-116
  GI50: > 83 µM (inactive)
HCT-15
  GI50: 98.6 µM
HOP-92
  GI50: > 100 µM (inactive)
MOLT-4
  GI50: > 100 µM (inactive)
NCI-H460
  GI50: > 100 µM (inactive)
OVCAR-3
  GI50: > 100 µM (inactive)
OVCAR-8
  GI50: > 100 µM (inactive)
SK-MEL-2
  GI50: > 100 µM (inactive)
SNB-78
  GI50: > 100 µM (inactive)
SW-620
  GI50: > 50 µM (inactive)
TK-10
  GI50: > 100 µM (inactive)
UACC-257
  GI50: > 100 µM (inactive)
UACC-62
  GI50: > 100 µM (inactive)

## O=C1CSC(/C(=C\c2ccc(Cl)cc2)c2nc3ccccc3[nH]2)=N1
A549
  GI50: 4.05 µM (inactive)
CCRF-CEM
  GI50: 27.6 µM (inactive)
EKVX
  GI50: 17 µM (inactive)
HCC 2998
  GI50: 3.43 µM (inactive)
HCT-116
  GI50: 16 µM (inactive)
HCT-15
  GI50: 22.8 µM
HOP-92
  GI50: 12.4 µM (inactive)
Hs-578T
  GI50: 18.7 µM (inactive)
MOLT-4
  GI50: 51.8 µM (inactive)
NCI-H460
  GI50: 13.3 µM (inactive)
OVCAR-3
  GI50: 7.78 µM (inactive)
OVCAR-8
  GI50: 7.91 µM (inactive)
PC-3
  GI50: 19.5 µM (inactive)
SK-MEL-2
  GI50: 17.9 µM (inactive)
SNB-78
  GI50: 41.3 µM (inactive)
SW-620
  GI50: 18.5 µM (inactive)
T47D
  GI50: 13.9 µM (inactive)
TK-10
  GI50: 11.8 µM (inactive)
UACC-257
  GI50: 16.2 µM (inactive)
UACC-62
  GI50: 18.7 µM (inactive)

## O=C(N/C(=C\c1ccc(/C=C(\NC(=O)c2ccccc2)c2nc3cc([N+](=O)[O-])ccc3[nH]2)cc1)c1nc2cc([N+](=O)[O-])ccc2[nH]1)c1ccccc1
A549
  GI50: 31 µM (inactive)
CCRF-CEM
  GI50: 20.8 µM (inactive)
EKVX
  GI50: 32.9 µM (inactive)
HCC 2998
  GI50: 27.1 µM (inactive)
HCT-116
  GI50: 28.1 µM (inactive)
HCT-15
  GI50: 49.8 µM
HOP-92
  GI50: 35.2 µM (inactive)
MOLT-4
  GI50: 11 µM (inactive)
OVCAR-3
  GI50: 39.6 µM (inactive)
OVCAR-8
  GI50: 34.9 µM (inactive)
SK-MEL-2
  GI50: 14.9 µM (inactive)
SNB-78
  GI50: > 100 µM (inactive)
SW-620
  GI50: 55.7 µM (inactive)
TK-10
  GI50: 32.1 µM (inactive)
UACC-257
  GI50: 47.8 µM (inactive)
UACC-62
  GI50: 15.4 µM (inactive)

## Cc1cc(Cl)ccc1NC(=O)CC1SC(NC(=O)c2ccccc2Cl)=NC1=O (stereo not drawn)
A549
  GI50: 81.7 µM (inactive)
CCRF-CEM
  GI50: 2.86 µM (inactive)
EKVX
  GI50: > 100 µM (inactive)
HCC 2998
  GI50: 59.4 µM (inactive)
HCT-116
  GI50: 17.9 µM (inactive)
HCT-15
  GI50: 19.1 µM
HOP-92
  GI50: 18.8 µM (inactive)
MOLT-4
  GI50: 2.89 µM (inactive)
NCI-H460
  GI50: > 100 µM (inactive)
OVCAR-3
  GI50: 17.5 µM (inactive)
OVCAR-8
  GI50: > 100 µM (inactive)
SK-MEL-2
  GI50: 26.7 µM (inactive)
SNB-78
  GI50: 21.6 µM (inactive)
SW-620
  GI50: 18 µM (inactive)
TK-10
  GI50: > 10 µM (inactive)
UACC-257
  GI50: 16.3 µM (inactive)
UACC-62
  GI50: 27.1 µM (inactive)

## c1ccc2c(c1)nnn1c3cnccc3nc21
A549
  GI50: 30.9 µM (inactive)
CCRF-CEM
  GI50: 9.53 µM (inactive)
EKVX
  GI50: 51.6 µM (inactive)
HCC 2998
  GI50: 46.5 µM (inactive)
HCT-116
  GI50: 27.6 µM (inactive)
HCT-15
  GI50: 22.6 µM
HOP-92
  GI50: 24.6 µM (inactive)
MOLT-4
  GI50: 15.7 µM (inactive)
NCI-H460
  GI50: 16 µM (inactive)
OVCAR-3
  GI50: 18.9 µM (inactive)
OVCAR-8
  GI50: 30 µM (inactive)
SK-MEL-2
  GI50: 53.2 µM (inactive)
SNB-78
  GI50: 25.5 µM (inactive)
SW-620
  GI50: 32.4 µM (inactive)
TK-10
  GI50: 35.2 µM (inactive)
UACC-257
  GI50: 85.1 µM (inactive)
UACC-62
  GI50: 47 µM (inactive)

## COc1cccc(NC(=O)/C(CC(=O)CC(c2ccccc2)c2c(O)c3ccccc3oc2=O)=N\NC(C)(C)C)c1OC (stereo not drawn)
A549
  GI50: 87.7 µM (inactive)
CCRF-CEM
  GI50: 25.7 µM (inactive)
EKVX
  GI50: 43.4 µM (inactive)
HCC 2998
  GI50: 40.9 µM (inactive)
HCT-116
  GI50: 69 µM (inactive)
HCT-15
  GI50: 28.4 µM
HOP-92
  GI50: 17.6 µM (inactive)
MOLT-4
  GI50: 28.7 µM (inactive)
NCI-H460
  GI50: > 100 µM (inactive)
OVCAR-3
  GI50: 78.9 µM (inactive)
OVCAR-8
  GI50: > 100 µM (inactive)
SK-MEL-2
  GI50: > 100 µM (inactive)
SNB-78
  GI50: > 100 µM (inactive)
SW-620
  GI50: > 100 µM (inactive)
TK-10
  GI50: > 100 µM (inactive)
UACC-257
  GI50: > 100 µM (inactive)
UACC-62
  GI50: 33.3 µM (inactive)

## COC(=O)CC1(O)C(=O)OCc2c1cc1n(c2=O)Cc2c-1nc1ccccc1c2OC (stereo not drawn)
A549
  GI50: 0.238 µM (active)
CCRF-CEM
  GI50: < 0.0171 µM (active)
EKVX
  GI50: 11.1 µM (inactive)
HCC 2998
  GI50: 3.71 µM (inactive)
HCT-116
  GI50: 0.388 µM (active)
HCT-15
  GI50: 4.61 µM
HOP-92
  GI50: 12.3 µM (inactive)
MOLT-4
  GI50: 0.017 µM (active)
NCI-H460
  GI50: 0.0185 µM (active)
OVCAR-3
  GI50: 3.86 µM (inactive)
OVCAR-8
  GI50: 0.726 µM (active)
SK-MEL-2
  GI50: 16.1 µM (inactive)
SNB-78
  GI50: 26 µM (inactive)
SW-620
  GI50: 0.515 µM (active)
TK-10
  GI50: > 43.6 µM (inactive)
UACC-257
  GI50: 5.38 µM (inactive)
UACC-62
  GI50: 0.0869 µM (active)

## Cc1cc(N(CCC#N)CCC#N)ccc1/C=C1N=C(/C=C\c2ccccc2)OC\1=O
A549
  GI50: > 100 µM (inactive)
CCRF-CEM
  GI50: > 100 µM (inactive)
EKVX
  GI50: > 100 µM (inactive)
HCC 2998
  GI50: > 100 µM (inactive)
HCT-116
  GI50: > 100 µM (inactive)
HCT-15
  GI50: > 100 µM
HOP-92
  GI50: > 100 µM (inactive)
MOLT-4
  GI50: > 100 µM (inactive)
NCI-H460
  GI50: > 100 µM (inactive)
OVCAR-3
  GI50: > 100 µM (inactive)
OVCAR-8
  GI50: > 100 µM (inactive)
SK-MEL-2
  GI50: > 100 µM (inactive)
SNB-78
  GI50: > 100 µM (inactive)
SW-620
  GI50: > 100 µM (inactive)
TK-10
  GI50: > 100 µM (inactive)
UACC-257
  GI50: > 100 µM (inactive)
UACC-62
  GI50: > 100 µM (inactive)

## O=C(N/C(=C\c1cc(Cl)ccc1Cl)c1nc2c(O)nc(S)nc2[nH]1)c1ccccc1
A549
  GI50: 98.6 µM (inactive)
CCRF-CEM
  GI50: 13.4 µM (inactive)
EKVX
  GI50: 37.8 µM (inactive)
HCC 2998
  GI50: 16.4 µM (inactive)
HCT-116
  GI50: 7.91 µM (inactive)
HCT-15
  GI50: 17.2 µM
HOP-92
  GI50: > 44.6 µM (inactive)
MOLT-4
  GI50: 16.1 µM (inactive)
NCI-H460
  GI50: 34.5 µM (inactive)
OVCAR-3
  GI50: 43.5 µM (inactive)
OVCAR-8
  GI50: 25.7 µM (inactive)
SK-MEL-2
  GI50: 46.1 µM (inactive)
SNB-78
  GI50: 55.3 µM (inactive)
SW-620
  GI50: 13.7 µM (inactive)
TK-10
  GI50: > 75.3 µM (inactive)
UACC-62
  GI50: 19.7 µM (inactive)

## Clc1ccc(C(c2ccccc2Cl)C(Cl)Cl)cc1 (stereo not drawn) [MITOTANE]
A549
  GI50: 15.1 µM (inactive)
CCRF-CEM
  GI50: 17.7 µM (inactive)
EKVX
  GI50: 17.3 µM (inactive)
HCC 2998
  GI50: 12.7 µM (inactive)
HCT-116
  GI50: 13.2 µM (inactive)
HCT-15
  GI50: 15.8 µM
HOP-92
  GI50: 13 µM (inactive)
Hs-578T
  GI50: 3.26 µM (inactive)
MOLT-4
  GI50: 14.7 µM (inactive)
NCI-H460
  GI50: 17.3 µM (inactive)
OVCAR-3
  GI50: 15.6 µM (inactive)
OVCAR-8
  GI50: 20.7 µM (inactive)
PC-3
  GI50: 3.39 µM (inactive)
SK-MEL-2
  GI50: 18.3 µM (inactive)
SNB-78
  GI50: 20.7 µM (inactive)
SW-620
  GI50: 18 µM (inactive)
T47D
  GI50: 1.64 µM (inactive)
TK-10
  GI50: 20 µM (inactive)
UACC-257
  GI50: 19.4 µM (inactive)
UACC-62
  GI50: 14.8 µM (inactive)
